Laboratory results: patent US4657931A, “N-(acyldipeptidyl)-aminoglycols” (G. D. Searle & Co., priority 1985, dated 1987)
Residue numbers refer to the chain shown, from its start. Square brackets hold non-standard residues; d marks the D form. Peptide text beside a SMILES is read from it. * marks the point of attachment. Sta = CC(C)C[C@H](N)[C@@H](O)CC(=O)O; Isovaleryl = CC(C)CC(=O)*

Assays:
human renin = target: T1, human renin (Homo sapiens, UniProt P00797); test: Human Renin Test (angiotensin I by radioimmunoassay); assay type: biochemical
T1 sequence (P00797 67-406): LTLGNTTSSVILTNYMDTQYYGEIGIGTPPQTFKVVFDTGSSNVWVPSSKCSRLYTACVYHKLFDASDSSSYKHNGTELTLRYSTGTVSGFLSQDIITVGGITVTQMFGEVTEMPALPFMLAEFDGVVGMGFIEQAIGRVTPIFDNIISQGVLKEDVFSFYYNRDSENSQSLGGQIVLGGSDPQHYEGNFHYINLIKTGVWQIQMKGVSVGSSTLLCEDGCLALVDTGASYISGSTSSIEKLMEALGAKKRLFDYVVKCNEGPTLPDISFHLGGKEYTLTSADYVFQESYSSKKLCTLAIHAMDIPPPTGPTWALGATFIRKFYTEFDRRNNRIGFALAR
Protocol: The enzyme preparation was the international reference standard for human renin while human blood plasma was the angiotensinogen substrate source. The enzyme inhibition assay involved a two-hour incurbation at 37° C. of the following final concentrations of reagents (total volume of 0.25 ml): 0.1 mG units/ml human renin, 0.05 ml human plasma, 6 mM Na2 EDTA, 2.4 mM PMSF, 1.5 mM 8-hydroxyquinoline, 0.4 mg/ml BSA, 0.024 mg/ml neomycin sulfate in a 100 mM Tris Acetate buffer, pH 7.5. The reaction was terminated by boiling for 10 min and the angiotensin I produced was determined by radioimmunoassay.
This assay is a modification of the one by Burton et al. (Biochemistry 14, 3892, 1975).

monkey renin = target: T2, monkey renin (Macaca mulatta, UniProt Q6DLW5); test: Monkey Renin Test: plasma renin activity of Lasix treated Rhesus monkeys; assay type: in vivo; design: Plasma renin activity (PRA), Pre-Lasix -24 hr / Plasma renin activity (PRA), Post-Lasix 0 hr / Plasma renin activity (PRA), Post-Lasix 2 min / Plasma renin activity (PRA), Post-Lasix 5 min / Plasma renin activity (PRA), Post-Lasix 15 min: unit not given here; settings: for PRA after 15 min, in words / PRA at 2 min after treatment, in words: 10 mg/kg iv, lasix treated Rhesus monkeys; for Plasma renin activity (PRA), Post-Lasix 2 min: 2 min after 10 mg/kg iv; for Plasma renin activity (PRA), Post-Lasix 2 min / Plasma renin activity (PRA), Post-Lasix 5 min / Plasma renin activity (PRA), Post-Lasix 15 min / Plasma renin activity (PRA), Pre-Lasix -24 hr / Plasma renin activity (PRA), Post-Lasix 0 hr: mean ± S.E., n = 6; for Plasma renin activity (PRA), Post-Lasix 5 min: 5 min after 10 mg/kg iv; for Plasma renin activity (PRA), Post-Lasix 15 min: 15 min after 10 mg/kg iv; for Plasma renin activity (PRA), Pre-Lasix -24 hr: baseline before lasix and before drug, group later given 10 mg/kg iv; for Plasma renin activity (PRA), Post-Lasix 0 hr: immediately before drug treatment (10 mg/kg iv)
T2 construct: from tissue; host or cells: plasma of furosemide-treated Rhesus monkeys
T2 sequence (Q6DLW5 67-406): T1 sequence (P00797 67-406) with T2A, I148L, S169A, Q204P, R340H
Protocol: Rhesus monkeys (6/group) weighing (6.3-9.9 kg) were treated with lasix (furosemide) at 2 mg/kg, both in the A.M. and P.M. on day 1. […] Plasma samples (K-EDTA) were taken before the initial lasix, immediately before the drug treatment and at 2, 5, 15 min after the treatment. Plasma renin activity (PRA) was determined by the method of Burton et al., Biochemistry 14, 3892, 1975.

hog renin = settings: after the injection of hog renin into nephrectomized rats; cited from earlier work

Row | PRA after 15 min, in words (monkey renin) | PRA at 2 min after treatment, in words (monkey renin) | Plasma renin activity (PRA), Post-Lasix 2 min (monkey renin) | Plasma renin activity (PRA), Post-Lasix 5 min (monkey renin) | Plasma renin activity (PRA), Post-Lasix 15 min (monkey renin) | Plasma renin activity (PRA), Pre-Lasix -24 hr (monkey renin) | Plasma renin activity (PRA), Post-Lasix 0 hr (monkey renin) | Structure (SMILES) | further results
1 | still lowered | returned to pre-lasix values | 8.4 ± 2.6 | 15.1 ± 3.5 | 23.5 ± 4.6 | 12.2 ± 2.9 | 47.2 ± 7.9 | CC(C)C[C@H](NC(=O)[C@H](Cc1ccccc1)NC(=O)OC(C)(C)C)C(=O)N[C@@H](Cc1ccccc1)[C@@H](O)CO [Compound 4, N-[(1,1-dimethylethoxy)carbonyl]-L-phenylalanyl-N-[2R, 3-dihydroxy-1S-(phenylmethyl)propyl]-L-leucinamide] | Activity, effect on human renin activity (human renin; Dose 8.4 × 10^-6 (unit not given)): Active
2 |  |  |  |  |  |  |  | CC(C)(C)OC(=O)N[C@@H](Cc1ccccc1)C(=O)N[C@@H](Cc1c[nH]cn1)C(=O)N[C@@H](Cc1ccccc1)[C@@H](O)CO [Compound 7, N-[(1,1-dimethylethoxy)carbonyl]-L-phenylalanyl-N-[2R,3-dihydroxy-1S-(phenylmethyl)propyl]-L-histidinamide] | Activity, effect on human renin activity (human renin; Dose 2.6 × 10^-6 (unit not given)): Active
3 |  |  |  |  |  |  |  | CC(C)C[C@H](NC(=O)[C@H](Cc1cccc2ccccc12)NC(=O)OC(C)(C)C)C(=O)N[C@@H](Cc1ccccc1)[C@@H](O)CO [Compound 8, N-[(1,1-dimethylethoxy)carbonyl]-3-(1-naphthalenyl)-L-alanyl-N-[2R,3-dihydroxy-1S-(phenylmethyl)propyl]-L-leucinamide] | Activity, effect on human renin activity (human renin; Dose 1.5 × 10^-5 (unit not given)): Active
4 |  |  |  |  |  |  |  | CC(C)C[C@H](NC(=O)[C@H](Cc1ccccc1)NC(=O)CC(C)(C)C)C(=O)N[C@@H](Cc1ccccc1)[C@@H](O)CO [Compound 11, N-(3,3-dimethyl-1-oxobutyl)-L-phenylalanyl-N-[2R,3-dihydroxy-1S-(phenylmethyl)propyl]-L-leucinamide] | Activity, effect on human renin activity (human renin; Dose 4 × 10^-6 (unit not given)): Active
5 | returned to post-lasix levels | returned to pre-lasix values | 13.0 ± 0.2 | 22.7 ± 9.2 | 44.7 ± 5.4 | 13.9 ± 2.5 | 53.1 ± 6.1 | CC(C)CC(=O)N[C@H](C(=O)N[C@H](C(=O)N[C@@H](CC(C)C)[C@@H](O)CC(=O)N[C@@H](C)C(=O)N[C@@H](CC(C)C)[C@@H](O)CC(=O)O)C(C)C)C(C)C [Pepstatin, pepstatin, reference compound] (Isovaleryl-VV[Sta]A[Sta]-OH) | Blood pressure in vivo (hog renin): reduce blood pressure
